The record followed here is publication PMC6261043, “Characterization of a heat responsive UDP: Flavonoid glucosyltransferase gene in tea plant (Camellia sinensis)” (PLoS ONE, 2018).

SMILES strings stand for the structures.

T1 sequence (W6JMN6 entry or part of it L296I/A466V, form open): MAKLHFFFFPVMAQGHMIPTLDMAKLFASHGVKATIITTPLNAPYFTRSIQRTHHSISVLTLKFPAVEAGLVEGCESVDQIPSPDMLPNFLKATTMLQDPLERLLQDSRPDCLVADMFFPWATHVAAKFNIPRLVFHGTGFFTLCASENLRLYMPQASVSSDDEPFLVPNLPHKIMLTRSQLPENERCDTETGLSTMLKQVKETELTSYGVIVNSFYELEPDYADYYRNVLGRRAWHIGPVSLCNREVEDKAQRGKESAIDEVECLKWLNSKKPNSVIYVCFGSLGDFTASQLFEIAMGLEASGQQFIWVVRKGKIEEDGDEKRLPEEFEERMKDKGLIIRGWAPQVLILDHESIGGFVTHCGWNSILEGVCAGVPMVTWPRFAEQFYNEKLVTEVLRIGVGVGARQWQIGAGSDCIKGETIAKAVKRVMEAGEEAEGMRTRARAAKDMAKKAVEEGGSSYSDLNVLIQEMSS

The test concerns the target T1, UGT73A17 (rUGT73A17, CsUGT73A17) (Camellia sinensis, UniProt W6JMN6, L296I/A466V, form not given).
T1 construct: gene CsUGTC1; full-length ORF (1422 bp, 473 residues) from tea EST library, N-terminal MBP fusion (pMAL-c2X), E. coli Novablue, purified
Put plainly: HPLC product quantification, Lineweaver-Burk. It counts as biochemical. Particulars: UDP-glucose as sugar donor, 100 mM Tris-HCl pH 7.0, 30°C.
For `O=c1cc(-c2ccc(O)cc2)oc2cc(O)cc(O)c12` [apigenin], the Km was found to be 5.5 ± 1.5 µM.
The same measure for `O=C(O[C@H]1Cc2c(O)cc(O)cc2O[C@H]1c1ccc(O)c(O)c1)c1cc(O)c(O)c(O)c1` [epicatechin gallate]: 77 ± 5.9 µM; for `O=c1c(O)c(-c2ccc(O)cc2)oc2cc(O)cc(O)c12` [kaempferol]: 5.2 µM.
On to `O=c1cc(-c2ccc(O)c(O)c2)oc2cc(O)cc(O)c12` [luteolin], for which the Km was 3.2 µM.
Regarding `O=c1c(O)c(-c2cc(O)c(O)c(O)c2)oc2cc(O)cc(O)c12` [myricetin], the Km was 8.8 ± 4.3 µM.
The same measure for `O=C1C[C@@H](c2ccc(O)cc2)Oc2cc(O)cc(O)c21` [naringenin]: 9.5 ± 5 µM.
In the case of `O=c1cc(-c2cc(O)c(O)c(O)c2)oc2cc(O)cc(O)c12` [tricetin], the Km is 4.6 ± 0.71 µM.

What is called Km is the substrate concentration at which the rate is half of its maximum.
